# Laboratory results taken from ChEMBL document CHEMBL1909046, “DrugMatrix in vitro pharmacology data”.
# Columns and labels:
# Histamine H2 receptor = Histamine H2 receptor (Homo sapiens, UniProt P25021); assay type: cell membranes, CHO-K1, Membrane; details: cho-k1; also: in other assays of this panel Not Active means under 50% inhibition at 10 µM
# [1] = DRUGMATRIX: Glutamate, Kainate radioligand binding (ligand: [3H] Kainic acid); assay type: cell membranes, Rattus norvegicus, Wistar, Brain, Membrane; details: Not Active = under 50% inhibition at 10 µM
# Adenosine receptor A2a = Adenosine receptor A2a (Homo sapiens, UniProt P29274); assay: DRUGMATRIX: Adenosine A2A radioligand binding (ligand: […]); assay type: cell membranes, HEK293, Membrane; details: hek293; Not Active = under 50% inhibition at 10 µM
# [2] = target: Sodium-dependent noradrenaline transporter (Homo sapiens, UniProt P23975); assay: DRUGMATRIX: Norepinephrine Transporter radioligand binding (ligand: [125I] RTI-55); assay type: cell membranes, MDCK, Membrane; details: Not Active = under 50% inhibition at 10 µM; for Ki: read-out: Ki
# [3] = target: T1, C-X-C chemokine receptor type 1 (Homo sapiens, UniProt P25024); also: in other assays of this panel Not Active means under 50% inhibition at 10 µM
# T1 sequence (P25024 whole entry): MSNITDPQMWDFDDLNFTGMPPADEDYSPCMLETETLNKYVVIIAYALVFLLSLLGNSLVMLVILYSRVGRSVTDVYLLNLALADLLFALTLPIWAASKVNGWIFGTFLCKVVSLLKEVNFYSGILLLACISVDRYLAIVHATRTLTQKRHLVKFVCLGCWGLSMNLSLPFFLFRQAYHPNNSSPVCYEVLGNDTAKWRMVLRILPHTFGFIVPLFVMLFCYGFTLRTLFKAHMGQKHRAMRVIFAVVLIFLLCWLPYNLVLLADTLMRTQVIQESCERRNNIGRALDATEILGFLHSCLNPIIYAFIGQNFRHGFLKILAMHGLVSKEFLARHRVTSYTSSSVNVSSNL
# [4] = target: Protein phosphatase 3 catalytic subunit alpha (Homo sapiens, UniProt Q08209); design: species or system Escherichia coli;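 also: inhibition of calcineurin (PP2B) enzyme activity, measured with DiFMUP as the substrate; in other assays of this panel Not Active means under 50% inhibition at 10 µM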
# [5] = DRUGMATRIX: Leukotriene, BLT (LTB4) radioligand binding (ligand: [3H]LTB4); assay type: cell membranes, Membrane; details: u-937; Not Active = under 50% inhibition at 10 µM
# [6] = DRUGMATRIX: beta-Lactamase enzyme inhibition (substrate: Nitrocefin); design: species or system Bacillus cereus; details: Not Active = under 50% inhibition at 10 µM
# [7] = target: Kappa-type opioid receptor (Homo sapiens, UniProt P41145); assay: DRUGMATRIX: Opiate kappa (OP2, KOP) radioligand binding (ligand: [3H] Diprenorphine); assay type: cell membranes, HEK293, Membrane; details: hek293; Not Active = under 50% inhibition at 10 µM
# [8] = target: Beta-2 adrenergic receptor (Homo sapiens, UniProt P07550); assay: DRUGMATRIX: Adrenergic beta2 radioligand binding (ligand: [3H] CGP-12177); assay type: cell membranes, Membrane; details: cho; Not Active = under 50% inhibition at 10 µM
# Chain of Beta-2 adrenergic receptor (P07550 whole entry): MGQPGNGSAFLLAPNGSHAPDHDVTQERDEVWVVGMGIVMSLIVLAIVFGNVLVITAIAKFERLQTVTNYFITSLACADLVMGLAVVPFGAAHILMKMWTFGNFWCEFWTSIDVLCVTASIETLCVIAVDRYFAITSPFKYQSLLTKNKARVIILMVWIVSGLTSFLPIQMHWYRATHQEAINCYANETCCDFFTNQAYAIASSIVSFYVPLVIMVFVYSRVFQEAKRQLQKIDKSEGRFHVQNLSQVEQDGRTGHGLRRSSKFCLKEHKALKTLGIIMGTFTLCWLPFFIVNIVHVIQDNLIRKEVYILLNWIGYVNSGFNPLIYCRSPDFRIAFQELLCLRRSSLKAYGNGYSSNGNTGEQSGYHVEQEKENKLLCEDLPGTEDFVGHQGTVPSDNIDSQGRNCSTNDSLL
# Chain of Histamine H2 receptor (P25021 whole entry): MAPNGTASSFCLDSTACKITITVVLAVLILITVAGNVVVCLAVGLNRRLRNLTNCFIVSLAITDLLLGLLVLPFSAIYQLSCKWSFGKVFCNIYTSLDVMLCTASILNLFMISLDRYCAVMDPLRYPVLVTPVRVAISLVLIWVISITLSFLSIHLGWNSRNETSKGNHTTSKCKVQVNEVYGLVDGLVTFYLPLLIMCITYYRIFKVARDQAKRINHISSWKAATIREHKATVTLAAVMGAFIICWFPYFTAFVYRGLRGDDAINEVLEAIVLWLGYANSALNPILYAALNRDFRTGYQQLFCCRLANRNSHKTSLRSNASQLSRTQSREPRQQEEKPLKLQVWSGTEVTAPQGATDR
# Chain of Kappa-type opioid receptor (P41145 whole entry): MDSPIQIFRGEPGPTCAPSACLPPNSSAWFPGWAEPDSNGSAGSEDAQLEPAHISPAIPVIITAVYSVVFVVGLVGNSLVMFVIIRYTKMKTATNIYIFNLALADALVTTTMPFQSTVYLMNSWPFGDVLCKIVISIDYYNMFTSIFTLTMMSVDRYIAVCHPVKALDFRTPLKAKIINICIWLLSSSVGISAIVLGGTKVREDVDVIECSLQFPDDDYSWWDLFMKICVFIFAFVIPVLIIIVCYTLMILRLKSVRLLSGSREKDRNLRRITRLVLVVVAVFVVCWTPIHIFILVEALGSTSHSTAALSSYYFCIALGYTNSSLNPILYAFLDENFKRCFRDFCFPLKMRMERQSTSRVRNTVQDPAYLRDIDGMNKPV
# Chain of Adenosine receptor A2a (P29274 whole entry): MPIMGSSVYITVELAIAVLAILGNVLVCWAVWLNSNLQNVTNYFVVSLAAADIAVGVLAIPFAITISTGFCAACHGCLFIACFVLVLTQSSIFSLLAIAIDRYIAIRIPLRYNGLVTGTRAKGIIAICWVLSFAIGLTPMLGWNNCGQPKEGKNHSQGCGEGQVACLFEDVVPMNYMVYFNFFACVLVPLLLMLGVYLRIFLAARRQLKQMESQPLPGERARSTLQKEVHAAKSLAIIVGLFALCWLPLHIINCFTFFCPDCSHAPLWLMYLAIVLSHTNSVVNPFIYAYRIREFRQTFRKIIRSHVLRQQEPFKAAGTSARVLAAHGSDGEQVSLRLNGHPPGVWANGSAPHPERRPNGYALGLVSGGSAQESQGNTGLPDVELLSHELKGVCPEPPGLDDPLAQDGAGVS
# Chain of Sodium-dependent noradrenaline transporter (P23975 whole entry): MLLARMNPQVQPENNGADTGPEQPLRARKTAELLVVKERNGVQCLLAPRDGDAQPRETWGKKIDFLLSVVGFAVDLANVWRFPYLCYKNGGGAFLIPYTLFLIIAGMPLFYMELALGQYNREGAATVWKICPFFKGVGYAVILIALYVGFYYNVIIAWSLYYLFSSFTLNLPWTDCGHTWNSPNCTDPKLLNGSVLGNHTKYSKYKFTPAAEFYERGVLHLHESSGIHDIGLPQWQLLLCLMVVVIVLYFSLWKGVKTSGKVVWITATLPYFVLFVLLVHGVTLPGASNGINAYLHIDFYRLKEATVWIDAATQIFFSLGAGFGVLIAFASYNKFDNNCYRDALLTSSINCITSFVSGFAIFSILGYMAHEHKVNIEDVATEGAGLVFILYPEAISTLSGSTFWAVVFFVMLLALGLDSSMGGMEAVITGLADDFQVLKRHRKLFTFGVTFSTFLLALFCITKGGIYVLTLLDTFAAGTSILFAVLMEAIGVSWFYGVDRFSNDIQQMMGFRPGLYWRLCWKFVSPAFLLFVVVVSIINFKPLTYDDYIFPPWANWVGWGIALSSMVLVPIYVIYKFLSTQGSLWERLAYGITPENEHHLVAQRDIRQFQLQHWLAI
Compound,IC50 (Histamine H2 receptor),IC50 [1],Ki [1],IC50 (Adenosine receptor A2a),IC50 ([2]; mdck),IC50 [3],IC50 [4],IC50 [5],Ki [5],IC50 ([6]; read-out: IC50),IC50 [7],IC50 [8],IC50 [6],Ki [6],IC50 ([2]; read-out: IC50),Ki [2],IC50 ([4]; read-out: IC50)
C[C@]1(Cn2ccnn2)[C@H](C(=O)O)N2C(=O)C[C@H]2S1(=O)=O [TAZOBACTAM],Not Active,Not Active,Not Active,Not Active,Not Active,Not Active,Not Active,Not Active,Not Active,299 nM,Not Active,Not Active,–,–,–,–,–
CN1C(C(=O)Nc2ccccn2)=C(O)c2sccc2S1(=O)=O [TENOXICAM],Not Active,Not Active,Not Active,Not Active,Not Active,Not Active,Not Active,Not Active,Not Active,–,Not Active,Not Active,Not Active,Not Active,–,–,–
O=C1CCC(N2C(=O)c3ccccc3C2=O)C(=O)N1 (stereo not drawn) [THALIDOMIDE],Not Active,Not Active,Not Active,Not Active,Not Active,Not Active,Not Active,Not Active,Not Active,–,Not Active,Not Active,Not Active,Not Active,–,–,–
Cc1cccc(Nc2ccncc2S(=O)(=O)NC(=O)NC(C)C)c1 [TORSEMIDE],Not Active,Not Active,Not Active,Not Active,Not Active,Not Active,Not Active,Not Active,Not Active,–,Not Active,Not Active,Not Active,Not Active,–,–,–
CC(C)C[C@H](NC(=O)[C@@H](O)[C@H](N)Cc1ccccc1)C(=O)O [UBENIMEX],Not Active,Not Active,Not Active,Not Active,Not Active,Not Active,Not Active,Not Active,Not Active,–,Not Active,Not Active,Not Active,Not Active,–,–,–
Cc1onc(-c2ccccc2)c1-c1ccc(S(N)(=O)=O)cc1 [VALDECOXIB],Not Active,Not Active,Not Active,Not Active,–,Not Active,Not Active,Not Active,Not Active,–,Not Active,Not Active,Not Active,Not Active,2930 nM,2900 nM,–
CC[C@]1(O)C[C@@H]2CN(CCc3c([nH]c4ccccc34)[C@@](C(=O)OC)(c3cc4c(cc3OC)N(C)[C@H]3[C@@](O)(C(=O)OC)[C@H](OC(C)=O)[C@]5(CC)C=CCN6CC[C@]43[C@@H]65)C2)C1 [VINBLASTINE],Not Active,Not Active,Not Active,Not Active,Not Active,Not Active,Not Active,Not Active,Not Active,–,Not Active,Not Active,Not Active,Not Active,–,–,–
C[C@@H](N)[C@H]1CC[C@H](C(=O)Nc2ccncc2)CC1 [Y-27632],Not Active,Not Active,Not Active,Not Active,Not Active,Not Active,Not Active,Not Active,Not Active,–,Not Active,Not Active,Not Active,Not Active,–,–,–
[Cl-].[Cl-].[Zn+2] [ZINC CHLORIDE],Not Active,Not Active,Not Active,Not Active,–,Not Active,–,Not Active,Not Active,–,Not Active,Not Active,Not Active,Not Active,7010 nM,6950 nM,1100 nM
